# Assay results: patent US20130029928A1 (priority 2010, published 2013)
# Read-outs that look alike come from different tables or passages of the source.
# Experiment: Phase I study CXR1002-001: plasma pharmacokinetics (LC-MS/MS)
# Assay type: in vivo, human
# Details: human, plasma, oral; for concentration at 168 h: 168 hr (Day 8)
# Text: PK samples, PD (fasting) samples, blood glucose, and blood triglyceride samples, were taken over a 6-week period.
# Dose limiting toxicity (DLT) will be based on the toxicity assessments over the first 3-week period of the repeat dosing schedule. PK samples (single blood sample) were taken on the following basis: • Every 6 weeks during the repeat dosing phase • If dosing is interrupted or stopped, samples will be taken at intervals according to patient convenience • PK sampling for safety evaluation may take place at any time, as clinically indicated
# Plasma samples were collected after the single 50 mg dose at the following timepoints: Pre-dose, and then 0.25, 0.5, 0.75, 1, 1.5, 2, 3, 4, 6, 24, 48, and 72 hours after administration and then once weekly at weeks 2, 3, 4, 5, and 6 (days 8, 15, 22, 29, and 36). For patients treated with the weekly repeat dose, plasma samples were collected at the following timepoints: Pre-dose and then 2, 3, 4 and 24 hours after administration for a total of 6 weeks. Thereafter a single sample was collected every 6 weeks for monitoring of exposure during long term treatment. Plasma samples were processed at site and stored at −80° C. prior to batch shipment to the analytical laboratory.
# [1] = 50 mg, Patient 004 Dose 50 mg, read-out: Concentration
# [2] = 100 mg, Patient 005 Dose 100 mg, read-out: Concentration
structure (smiles),measurement,setting,value
O=C(O)C(F)(F)C(F)(F)C(F)(F)C(F)(F)C(F)(F)C(F)(F)C(F)(F)F [CXR1002],concentration at 0.5 h,"50 mg, Patient 003 Dose 50 mg, 0.5 hr",11.3 µM
same,concentration at 0.75 h,"50 mg, Patient 003 Dose 50 mg, 0.75 hr",17.1 µM
same,concentration at 1 h,"50 mg, Patient 003 Dose 50 mg, 1 hr",20.7 µM
same,concentration at 1.5 h,"50 mg, Patient 003 Dose 50 mg, 1.5 hr",24.6 µM
same,concentration at 2 h,"50 mg, Patient 003 Dose 50 mg, 2 hr, read-out: Concentration",24.5 µM
same,concentration at 3 h,"50 mg, Patient 003 Dose 50 mg, read-out: Concentration",21.2 µM
same,concentration at 4 h,"50 mg, Patient 003 Dose 50 mg, 4 hr, read-out: Concentration",18 µM
same,concentration at 24 h,"50 mg, Patient 003 Dose 50 mg, 24 hr, read-out: Concentration",19.5 µM
same,concentration at 48 h,"50 mg, Patient 003 Dose 50 mg, 48 hr",18.1 µM
same,concentration at 72 h,"50 mg, Patient 003 Dose 50 mg, 72 hr",18.4 µM
same,concentration at 192 h,"50 mg, Patient 003 Dose 50 mg, 192 hr (Day 8), read-out: Concentration",8.6 µM
same,concentration at 360 h,"50 mg, Patient 003 Dose 50 mg, 360 hr (Day 15), read-out: Concentration",7.2 µM
same,concentration at 528 h,"50 mg, Patient 003 Dose 50 mg, 528 hr (Day 22), read-out: Concentration",6.5 µM
same,concentration at 696 h,"50 mg, Patient 003 Dose 50 mg, 696 hr (Day 29), read-out: Concentration",5 µM
same,concentration at 864 h,"50 mg, Patient 003 Dose 50 mg, 864 hr (Day 36), read-out: Concentration",6.5 µM
same,concentration at 0 hr,"50 mg, Patient 004 Dose 50 mg, 0 hr",0.1 µM
same,concentration at 2 hr,"50 mg, Patient 004 Dose 50 mg, 2 hr, read-out: Concentration",19.9 µM
same,concentration at 4 hr,"50 mg, Patient 004 Dose 50 mg, 4 hr, read-out: Concentration",19.3 µM
same,concentration at 24 hr,"50 mg, Patient 004 Dose 50 mg, 24 hr (Day 2), read-out: Concentration",14.4 µM
same,concentration at 168 h,[1],12.8 µM
same,concentration at 170 h,[1],35.7 µM
same,concentration at 171 h,[1],40.4 µM
same,concentration at 172 h,[1],36 µM
same,concentration at 192 h,"50 mg, Patient 004 Dose 50 mg, 192 hr (Day 9), read-out: Concentration",22.5 µM
same,concentration at 336 hr,"50 mg, Patient 004 Dose 50 mg, 336 hr (Day 15), read-out: Concentration",21.8 µM
same,concentration at 338 hr,"50 mg, Patient 004 Dose 50 mg, 338 hr, read-out: Concentration",31.1 µM
same,concentration at 339 hr,"50 mg, Patient 004 Dose 50 mg, 339 hr, read-out: Concentration",38.8 µM
same,concentration at 340 hr,"50 mg, Patient 004 Dose 50 mg, 340 hr, read-out: Concentration",40.6 µM
same,concentration at 360 hr,"50 mg, Patient 004 Dose 50 mg, 360 hr (Day 16), read-out: Concentration",38.8 µM
same,concentration at 504 h,"50 mg, Patient 004 Dose 50 mg, 504 hr (Day 22), read-out: Concentration",33.4 µM
same,concentration at 506 h,"50 mg, Patient 004 Dose 50 mg, 506 hr, read-out: Concentration",46.3 µM
same,concentration at 507 h,"50 mg, Patient 004 Dose 50 mg, 507 hr, read-out: Concentration",50.4 µM
same,concentration at 508 h,"50 mg, Patient 004 Dose 50 mg, 508 hr, read-out: Concentration",47.9 µM
same,concentration at 528 h,"50 mg, Patient 004 Dose 50 mg, 528 hr (Day 23), read-out: Concentration",50 µM
same,concentration at 672 hr,"50 mg, Patient 004 Dose 50 mg, 672 hr (Day 29), read-out: Concentration",52.3 µM
same,concentration at 674 hr,"50 mg, Patient 004 Dose 50 mg, 674 hr, read-out: Concentration",65.8 µM
same,concentration at 675 hr,"50 mg, Patient 004 Dose 50 mg, 675 hr, read-out: Concentration",61.7 µM
same,concentration at 676 hr,"50 mg, Patient 004 Dose 50 mg, 676 hr, read-out: Concentration",56.7 µM
same,concentration at 696 hr,"50 mg, Patient 004 Dose 50 mg, 696 hr (Day 30), read-out: Concentration",77.5 µM
same,concentration at 840 h,"50 mg, Patient 004 Dose 50 mg, 840 hr (Day 36), read-out: Concentration",63 µM
same,concentration at 842 h,"50 mg, Patient 004 Dose 50 mg, 842 hr, read-out: Concentration",78.6 µM
same,concentration at 843 h,"50 mg, Patient 004 Dose 50 mg, 843 hr, read-out: Concentration",80.5 µM
same,concentration at 864 h,"50 mg, Patient 004 Dose 50 mg, 864 hr (Day 37), read-out: Concentration",81.1 µM
same,half-life,"50 mg, after a single dose, 6 week sampling period, read-out: half-life of elimination",> 42 days
same,concentration at 0 h,"100 mg, Patient 005 Dose 100 mg, 0 hr",0.23 µM
same,concentration at 2 h,"100 mg, Patient 005 Dose 100 mg, 2 hr, read-out: Concentration",19.8 µM
same,concentration at 3 h,[2],23 µM
same,concentration at 4 h,"100 mg, Patient 005 Dose 100 mg, 4 hr, read-out: Concentration",23.7 µM
same,concentration at 24 h,"100 mg, Patient 005 Dose 100 mg, 24 hr (Day 2), read-out: Concentration",19.9 µM
same,concentration at 168 h,[2],19 µM
same,concentration at 170 h,[2],42.9 µM
same,concentration at 171 h,[2],50.8 µM
same,concentration at 172 h,[2],45.7 µM
same,concentration at 192 h,"100 mg, Patient 005 Dose 100 mg, 192 hr (Day 9), read-out: Concentration",34.4 µM
same,concentration at 336 h,"100 mg, Patient 005 Dose 100 mg, 336 hr (Day 15), read-out: Concentration",47.8 µM
same,concentration at 338 h,"100 mg, Patient 005 Dose 100 mg, 338 hr, read-out: Concentration",80.2 µM
same,concentration at 339 h,"100 mg, Patient 005 Dose 100 mg, 339 hr, read-out: Concentration",70.1 µM
same,concentration at 340 h,"100 mg, Patient 005 Dose 100 mg, 340 hr, read-out: Concentration",53.9 µM
